Experimental data reported in patent publication US20090118135A1, “METHODS AND COMPOUNDS FOR REGULATING APOPTOSIS” (The Burnham Institute, priority 2007, published 2009).
Where “and” joins values, the source holds several entries; their conditions need not be identical. Equal values may be shown once. Entries after “also recorded” stand apart in the source; their conditions may differ. Where a SMILES comes first, the peptide text is derived from it. [ ]: non-standard residue; d: D form. Ahx = NCCCCCC(=O)O

Tests used:
GST-Bcl-2 = GST-Bcl-2 (Homo sapiens, UniProt P10415); assay: Bcl-2/FITC-TR3 fluorescence polarization competition assay (PBS + Tween-20); details: for displacement of FITC-TR3-r8 from Bcl-2: result in words; for Bcl-2 H Coefficient: Hill coefficient of Bcl-2 dose-response curve
Protocol: For the Chembridge screen, IC50s for each compound with respect to the Bcl-B/FITC-TR3 (In Hepes/β-glycerophophate/tween-20) fluorescence polarization and the Bcl-2/FITC-TR3 (In PBS+tween-20) fluorescence polarization assays were identified.
Fluorescence polarization was then measured using an Analyst HT Multi-Mode Plate Reader (LJL Biosystems, Sunnyvale, Calif.).

GST-Bcl-B [1] = target: T1, GST-Bcl-B (Homo sapiens, UniProt Q9HD36); assay: biochemical
T1 sequence (Q9HD36 1-182 limits assumed): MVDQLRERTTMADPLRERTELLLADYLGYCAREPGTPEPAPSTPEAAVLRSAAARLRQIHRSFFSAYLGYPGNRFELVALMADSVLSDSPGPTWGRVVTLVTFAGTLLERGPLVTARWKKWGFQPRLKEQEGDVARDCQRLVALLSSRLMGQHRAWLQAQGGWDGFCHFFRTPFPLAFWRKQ

GST-Bcl-B [2] = target: T1, GST-Bcl-B; assay: Bcl-B/FITC-TR3-r8 fluorescence polarization competition (displacement) assay, HTS and dose-response; details: for Bcl-B H Coefficient: Hill coefficient of Bcl-B dose-response curve; for Is Hit: LOPAC1280 library primary screen; for F Ratio: LOPAC1280 library, fluorescence intensity normalized to plate negative controls; for inhibition at 0.02 µM: read-out: Result Value (% Inhibition)

GST-Bcl-2, sequence (P10415 1-218 limits assumed): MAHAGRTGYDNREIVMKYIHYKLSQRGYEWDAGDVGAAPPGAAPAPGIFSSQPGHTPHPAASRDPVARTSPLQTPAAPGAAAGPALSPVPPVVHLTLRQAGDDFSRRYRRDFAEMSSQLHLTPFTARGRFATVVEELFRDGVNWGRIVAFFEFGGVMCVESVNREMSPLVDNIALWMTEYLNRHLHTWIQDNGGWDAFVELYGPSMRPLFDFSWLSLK

CN(C)CC[C@H](CSc1ccccc1)Nc1ccc(S(=O)(=O)NC(=O)c2ccc(N3CCN(Cc4ccccc4-c4ccc(Cl)cc4)CC3)cc2)cc1[N+](=O)[O-] [ABT-737, reference compound]
displacement of FITC-TR3-r8 from Bcl-2 (GST-Bcl-2): failed to block FITC-TR3-9-r8 peptide binding to Bcl-2; also recorded: did not effectively displace FITC-TR3-r8 from Bcl-2

Cc1ccc(C(=O)c2coc3c2C(=O)C(=O)C(Cl)=C3Cl)cc1 [Compound 5169132]
IC50 (GST-Bcl-B [1]): 6.17 µM
Bcl-B H Coefficient (GST-Bcl-B [2]): 1.432

O=C1C=CC(=O)C(/C(=C/NCc2ccccc2)[N+](=O)[O-])=C1 [Compound 5261378]
IC50 (GST-Bcl-B [1]): 5.7 µM
Bcl-B H Coefficient (GST-Bcl-B [2]): 3.214

Nc1ccc(S(=O)(=O)O)c2cccc(O)c12 [Compound 5265894]
IC50 (GST-Bcl-B [1]): 1.05 µM
Bcl-B H Coefficient (GST-Bcl-B [2]): 2.075

CN(C)c1ccc(NC(=O)/C=C\C(=O)O)cc1 [Compound 5374579]
IC50 (GST-Bcl-B [1]): 20.4 µM
Bcl-B H Coefficient (GST-Bcl-B [2]): 2.167

O=C1C=CC2=C3Oc4c(ccc5cc(O)ccc45)C(c4ccccc4C(=O)O)C3C=CC2=C1 (centres unmarked) [Compound 5466725]
IC50 (GST-Bcl-B [1]): 1.68 µM
Bcl-B H Coefficient (GST-Bcl-B [2]): 3.03

Cc1ccc2oc3cc(NCCCN(C)C)c4c(=O)c5ccccc5c(=O)c4c3[nH]c2c1 [Compound 5468863]
IC50 (GST-Bcl-B [1]): 0.673 µM
Bcl-B H Coefficient (GST-Bcl-B [2]): 1.907

O=C(O)c1ccc2c(c1)C1C=CCC1C(c1cccc([N+](=O)[O-])c1)N2 (centres unmarked) [Compound 5475298]
IC50 (GST-Bcl-B [1]): 1.75 µM
Bcl-B H Coefficient (GST-Bcl-B [2]): 1.336

COc1ccc(OC)c(C=NNC(=O)C2C=CN(CC(=O)c3ccccc3)C=C2)c1 [Compound 5483976]
IC50 (GST-Bcl-B [1]): 1.35 µM and 1.34 µM
Bcl-B H Coefficient (GST-Bcl-B [2]): 2.127

C(=N\c1ccc(/N=C/c2ccccn2)cc1)/c1ccccc1 [Compound 5491977]
IC50 (GST-Bcl-B [1]): 4.4 µM and 4.39 µM
Bcl-B H Coefficient (GST-Bcl-B [2]): 1.819

COc1ccc(Nc2ccc(N)cc2)cc1 [Compound 5529774]
IC50 (GST-Bcl-B [1]): 7.22 µM
Bcl-B H Coefficient (GST-Bcl-B [2]): 2.718

COc1ccccc1NC(=O)C1=C(C)NC(SCC(=O)c2ccc(Br)cc2)=C(C#N)C1c1ccco1 (centres unmarked) [Compound 5570547]
IC50 (GST-Bcl-B [1]): 6.24 µM
Bcl-B H Coefficient (GST-Bcl-B [2]): 18.57

O=C(O)c1cccc2c1NC(c1ccc([N+](=O)[O-])cc1)C1CC=CC21 (centres unmarked) [Compound 5585430]
IC50 (GST-Bcl-B [1]): 5.41 µM
Bcl-B H Coefficient (GST-Bcl-B [2]): 1.735

O=C1C(=Cc2cn(Cc3ccc(Cl)cc3)c3ccccc23)C(=O)c2ccccc21 [Compound 5603089]
IC50 (GST-Bcl-B [1]): 14.4 µM
Bcl-B H Coefficient (GST-Bcl-B [2]): 1.917

COC(=O)C1=C(C)N(C)C(=O)NC1c1cc2c(cc1[N+](=O)[O-])OCO2 (centres unmarked) [Compound 5607960]
IC50 (GST-Bcl-B [1]): 17.4 µM
Bcl-B H Coefficient (GST-Bcl-B [2]): 1.821

Oc1cccc(/C=N/C2=C(c3ccco3)N=C3C=CC=CC32)c1 (centres unmarked) [Compound 5612880]
IC50 (GST-Bcl-B [1]): 9.1 µM and 9.07 µM
Bcl-B H Coefficient (GST-Bcl-B [2]): 0.5836

OC1=c2ccccc2=C(O)C12N=Nc1nnc(O)n1N2 [Compound 5627952]
Bcl-2 H Coefficient (GST-Bcl-2): 1.575
IC50 (GST-Bcl-B [1]): 25.2 µM and 23.8 µM
Bcl-B H Coefficient (GST-Bcl-B [2]): 0.9192

O=C(COc1ccc(Cl)cc1Cl)Nc1nnc(-c2ccco2)[nH]1 [Compound 5632817]
Bcl-2 H Coefficient (GST-Bcl-2): 1.078
IC50 (GST-Bcl-B [1]): 17.9 µM
Bcl-B H Coefficient (GST-Bcl-B [2]): 0.9962

CCOc1ccc(/C=C(/NC(=O)c2ccc(C)cc2)C(=O)NCCO)cc1 [Compound 5650022]
IC50 (GST-Bcl-B [1]): 13.3 µM
Bcl-B H Coefficient (GST-Bcl-B [2]): 1.428

O=C(O)C1Nc2ccc3ccccc3c2C2C=CCC12 (centres unmarked) [Compound 5657743]
IC50 (GST-Bcl-B [1]): 7.15 µM
Bcl-B H Coefficient (GST-Bcl-B [2]): 3.005

Cc1c(Cl)ccc2c1NC(C(=O)O)C1CC=CC21 (centres unmarked) [Compound 5659221]
IC50 (GST-Bcl-B [1]): 5.21 µM
Bcl-B H Coefficient (GST-Bcl-B [2]): 0.6773

COc1cc(C2Nc3ccc4ccccc4c3C3=C2C(=O)CC(C)(C)C3)c(Br)cc1O (centres unmarked) [Compound 5660965]
IC50 (GST-Bcl-B [1]): 13.1 µM
Bcl-B H Coefficient (GST-Bcl-B [2]): 1.507

O=C(O)C1Nc2c(cccc2[N+](=O)[O-])C2C=CCC12 (centres unmarked) [Compound 5665283]
IC50 (GST-Bcl-B [1]): 1.2 µM
Bcl-B H Coefficient (GST-Bcl-B [2]): 1.829

CCSc1nc(NN)c2c3c(sc2n1)CN(C)CC3 [Compound 5683054]
IC50 (GST-Bcl-B [1]): 7.43 µM
Bcl-B H Coefficient (GST-Bcl-B [2]): 1.332

Cn1c(=O)cc2c3c(c(Nc4ccc(C=O)cc4)ccc31)C(=O)c1ccccc1-2 [Compound 5719776]
IC50 (GST-Bcl-B [1]): 8.04 µM
Bcl-B H Coefficient (GST-Bcl-B [2]): 2.489

Cc1cc(C)nc(NC(=N)Nc2ccc(N)cc2)n1 [Compound 5805360]
IC50 (GST-Bcl-B [1]): 5.38 µM
Bcl-B H Coefficient (GST-Bcl-B [2]): 1.878

O=C1NN(c2ccc(F)c(Cl)c2)C(=O)/C1=C\c1ccco1 [Compound 5837788]
IC50 (GST-Bcl-B [1]): 33.4 µM
Bcl-B H Coefficient (GST-Bcl-B [2]): 1.772

O=C(O)C1C2CC=CC2c2cc(Oc3ccccc3)cc3c2N1CC1CC=CC31 (centres unmarked) [Compound 5840196]
IC50 (GST-Bcl-B [1]): 4.13 µM
Bcl-B H Coefficient (GST-Bcl-B [2]): 2.774

O=C(O)c1ccc([N+](=O)[O-])c2c1NC(c1ccccc1)C1CC=CC21 (centres unmarked) [Compound 5853021]
IC50 (GST-Bcl-B [1]): 3.92 µM
Bcl-B H Coefficient (GST-Bcl-B [2]): 2.481

O=C(O)c1cccc(-c2ccc(/C=N/Nc3ccc([N+](=O)[O-])cn3)o2)c1 [Compound 5908920]
IC50 (GST-Bcl-B [1]): 9.64 µM
Bcl-B H Coefficient (GST-Bcl-B [2]): 0.6738

O=C(O)C1Nc2c(C(=O)N3CCCC3)cccc2C2C=CCC12 (centres unmarked) [Compound 5947449]
IC50 (GST-Bcl-B [1]): 4.95 µM
Bcl-B H Coefficient (GST-Bcl-B [2]): 1.761

COc1cc(N)ccc1-n1c(C)ccc1C [Compound 5953790]
IC50 (GST-Bcl-B [1]): 32.9 µM
Bcl-B H Coefficient (GST-Bcl-B [2]): 2.719

Cc1ccc(C)n1-c1ccccc1C(=O)O [Compound 5959185]
IC50 (GST-Bcl-B [1]): 0.621 µM
Bcl-B H Coefficient (GST-Bcl-B [2]): 2.868

Cc1ccc(C)n1-c1ccc(OCC(=O)O)cc1 [Compound 5988031]
IC50 (GST-Bcl-B [1]): 8.75 µM
Bcl-B H Coefficient (GST-Bcl-B [2]): 0.6411

CC(=O)c1cc(C#N)c(SCC(=O)c2ccc(O)c(O)c2)nc1C [Compound 6033363]
IC50 (GST-Bcl-B [1]): 11 µM
Bcl-B H Coefficient (GST-Bcl-B [2]): 2.08

Cc1cc(I)c2c(c1)C1C=CCC1C(C(=O)O)N2 (centres unmarked) [Compound 6048134]
IC50 (GST-Bcl-B [1]): 20.7 µM
Bcl-B H Coefficient (GST-Bcl-B [2]): 1.406

O=C(O)c1cccc2c1NC(c1cccc(Cl)c1Cl)C1CC=CC21 (centres unmarked) [Compound 6048905]
IC50 (GST-Bcl-B [1]): 2.57 µM and 2.67 µM
Bcl-B H Coefficient (GST-Bcl-B [2]): 2.809

Nc1n[nH]c2ncc3cc4ccccc4nc3c12 [Compound 6051011]
IC50 (GST-Bcl-B [1]): 3.74 µM and 2.89 µM
Bcl-B H Coefficient (GST-Bcl-B [2]): 2.36

CN1CCN(CN2C(=O)/C(=N\NC(=O)CSc3nc4ccccc4s3)c3ccccc32)CC1 [Compound 6062681]
IC50 (GST-Bcl-B [1]): 12.9 µM
Bcl-B H Coefficient (GST-Bcl-B [2]): 2.531

Cc1ccc(-c2cc(C(=O)O)c3cc(Br)ccc3n2)o1 [Compound 6131498]
IC50 (GST-Bcl-B [1]): 16.5 µM
Bcl-B H Coefficient (GST-Bcl-B [2]): 1.896

C[C@H](Cc1ccc(O)c(O)c1)[C@@H](C)Cc1ccc(O)c(O)c1 [N 5023]
Is Hit (GST-Bcl-B [2]): Yes
F Ratio (GST-Bcl-B [2]): 0.09564
inhibition at 0.02 µM (GST-Bcl-B [2]): 67.5%

Cc1nc(/N=N\c2cc(S(=O)(=O)O)c3cc([N+](=O)[O-])cc(S(=O)(=O)O)c3c2)c(COP(=O)(O)O)c(C=O)c1O [P 2738]
Is Hit (GST-Bcl-B [2]): Yes
F Ratio (GST-Bcl-B [2]): 0.2636
inhibition at 0.02 µM (GST-Bcl-B [2]): 66.6%

O=c1c(O)c(-c2ccc(O)c(O)c2)oc2cc(O)cc(O)c12 [Q 0125]
Is Hit (GST-Bcl-B [2]): Yes
F Ratio (GST-Bcl-B [2]): 0.1424
inhibition at 0.02 µM (GST-Bcl-B [2]): 52%

[NH3+][Ru]([NH3+])([NH3+])([NH3+])([NH3+])[O][Ru]([NH3+])([NH3+])([NH3+])([NH3+])[O][Ru]([NH3+])([NH3+])([NH3+])([NH3+])[NH3+] [R 2751]
Is Hit (GST-Bcl-B [2]): Yes
F Ratio (GST-Bcl-B [2]): 1.1267

N#C/C(=C\c1ccc(O)c(O)c1)C(=O)c1ccc(O)c(O)c1 [T 7822]
Is Hit (GST-Bcl-B [2]): Yes
F Ratio (GST-Bcl-B [2]): 0.1036
inhibition at 0.02 µM (GST-Bcl-B [2]): 61.7%

CC(=O)N[C@@H](Cc1ccccc1)C(=O)N[C@@H](CO)C(=O)N[C@@H](CCCNC(=N)N)C(=O)N[C@@H](CO)C(=O)N[C@@H](CC(C)C)C(=O)N[C@@H](Cc1c[nH]cn1)C(=O)N[C@@H](CO)C(=O)N[C@@H](CC(C)C)C(=O)N[C@@H](CC(C)C)C(=O)NCC(=O)NCCCCCC(=O)N[C@H](CCCNC(=N)N)C(=O)N[C@H](CCCNC(=N)N)C(=O)N[C@H](CCCNC(=N)N)C(=O)N[C@H](CCCNC(=N)N)C(=O)N[C@H](CCCNC(=N)N)C(=O)N[C@H](CCCNC(=N)N)C(=O)N[C@H](CCCNC(=N)N)C(=O)N[C@H](CCCNC(=N)N)C(N)=O [TR3-r8, reference compound] (Ac-FSRSLHSLLG[Ahx][dR][dR][dR][dR][dR][dR][dR][dR]-NH2)
displacement of FITC-TR3-r8 from Bcl-2 (GST-Bcl-2): effectively competed for binding
EC50 (GST-Bcl-B [2]): 0.0828 µM
displacement of FITC-TR3-r8 from GST-Bcl-B (GST-Bcl-B [2]; result in words): displaced FITC-TR3-r8 as expected
